# Values quoted from earlier work as cited in article PMC3867298 (Clinical cancer research : an official journal of the …, 2010).
# System: renal cell carcinoma patients
# Details: 375 renal cell carcinoma patients, recommended phase 2 dose; cited from earlier work
compound,measurement,value
CCN(CC)CCNC(=O)c1c(C)[nH]c(/C=C2\C(=O)Nc3ccc(F)cc32)c1C [sunitinib],Patients with at least 1 treatment-related dose reduction,32%
